These results are taken from patent US10143705B2, “Method of treating a patient with a disease caused by a pathogenic mechanism associated with accumlation of methylglyoxal” (priority 2015, dated 2018).

The nature of the assay: Inhibitory effect of monosaccharides against methylglyoxal in vitro. As to conditions: concentration 0.05 M. The text has this:
The percentage inhibitory ratio of monosaccharide against methylglyoxal is 50% when the concentration of the monosaccharide is 0.05 M.
Foregoing exemplary embodiments of the present invention manifest that the low-molecular-weight chitosan has considerable effect to the carbonyl stress induced by the methylglyoxal both in vivo and in vitro. For an exemplary embodiment in vitro, the present invention employs buffer to simulate the same environmental status as human body by means of putting glucosamine and low-molecular-weight chitosan into buffer containing methylglyoxal to measure the bonding ratio thereof after 16 hours so that the half Inhibitory concentration associated with the affecting of low-molecular-weight chitosan to methylglyoxal can be obtained for further study on the examination of the binding conjugation of low-molecular-weight chitosan with methylglyoxal in vitro.

On to `NC1C(O)[C@H](O)C(CO)O[C@@H]1O` (stereo partly shown) [monosaccharide, glucosamine], for which the “percentage inhibitory ratio against methylglyoxal” value is 50%.
